Residue numbers refer to the chain shown, from its start.
Columns and labels:
[1] = system: T1, Dihydroorotate dehydrogenase (quinone), mitochondrial (Plasmodium falciparum (isolate 3D7)), Q08210 [C276F]; experiment: Inhibition of Plasmodium falciparum […] dehydrogenase C276F mutant expressed in Escherichia coli BL21(DE3) using […] as substrate at 100 uM by DCIP-based colorimetric analysis
T1 sequence (whole entry): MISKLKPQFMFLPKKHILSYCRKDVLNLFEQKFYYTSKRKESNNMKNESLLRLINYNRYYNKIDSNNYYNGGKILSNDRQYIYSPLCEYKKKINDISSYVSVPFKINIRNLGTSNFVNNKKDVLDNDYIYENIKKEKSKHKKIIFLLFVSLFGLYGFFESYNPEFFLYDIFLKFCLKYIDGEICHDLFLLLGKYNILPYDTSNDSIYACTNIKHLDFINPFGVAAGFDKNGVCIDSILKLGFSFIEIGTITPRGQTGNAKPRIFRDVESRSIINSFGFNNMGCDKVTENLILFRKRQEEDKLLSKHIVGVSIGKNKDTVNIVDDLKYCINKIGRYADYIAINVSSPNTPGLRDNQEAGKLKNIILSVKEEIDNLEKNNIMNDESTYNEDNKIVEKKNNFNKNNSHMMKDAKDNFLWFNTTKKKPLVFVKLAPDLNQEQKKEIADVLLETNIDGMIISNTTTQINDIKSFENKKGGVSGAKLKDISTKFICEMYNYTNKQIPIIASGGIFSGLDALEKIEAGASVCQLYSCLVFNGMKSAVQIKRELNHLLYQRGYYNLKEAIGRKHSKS

[2] = system: T2, Dihydroorotate dehydrogenase (quinone), mitochondrial (Plasmodium falciparum (isolate 3D7)), Q08210 [C276Y]; experiment: Inhibition of Plasmodium falciparum […] dehydrogenase C276Y mutant expressed in Escherichia coli BL21(DE3) using […] as substrate at 100 uM by DCIP-based colorimetric analysis
T2 sequence (whole entry): T1 sequence (whole entry) with F276Y

[3] = species on record: Homo sapiens; experiment: Ratio of IC50 for human dihydrofolate dehydrogenase Y147A mutant to IC50 for human wild type dihydrofolate dehydrogenase
[4] = species on record: Homo sapiens; experiment: Ratio of IC50 for human dihydrofolate dehydrogenase Y147F mutant to IC50 for human wild type dihydrofolate dehydrogenase
[5] = species on record: Homo sapiens; experiment: Ratio of IC50 for human dihydrofolate dehydrogenase Y147C mutant to IC50 for human wild type dihydrofolate dehydrogenase
[6] = target: T3, Dihydroorotate dehydrogenase (Plasmodium falciparum, UniProt Q54A96); experiment: Inhibition of Plasmodium falciparum […] dehydrogenase expressed in Escherichia coli BL21(DE3) using […] as substrate by DCIP-based colorimetric analysis
T3 sequence (Q54A96 whole entry): T1 sequence (whole entry) with F276C

[7] = system: T4, Dihydroorotate dehydrogenase (quinone), mitochondrial (Plasmodium falciparum (isolate 3D7)), Q08210 [H185A]; experiment: Inhibition of Plasmodium falciparum […] dehydrogenase H185A mutant expressed in Escherichia coli BL21(DE3) using […] as substrate at 100 uM by DCIP-based colorimetric analysis
T4 sequence (whole entry): T1 sequence (whole entry) with H185A, F276C

For CCc1cc(O)n2nc(SCc3cc(Cl)ccc3Cl)nc2n1, the inhibition [1] was under 50%, the inhibition [2] was under 50% and the Ratio IC50 [3] was 16. The Ratio IC50 [4] was 1.9, the Ratio IC50 [5] was 9 and the IC50 [6] was over 100 µM. It also gave an inhibition [7] of under 50%.

Source: ChEMBL document CHEMBL2177061, “Factors influencing the specificity of inhibitor binding to the human and malaria parasite dihydroorotate dehydrogenases” (J Med Chem, 2012)
